Tests used:
cells = test: Entry of dsRNA (PIC) into cells, stain (Example 2); format: cell-based; conditions: after pre-treatment with RA
Aldh1a2, Aldh1a3 = test: qRT-PCR of Aldh1a2 and Aldh1a3 in mouse wounds; format: in vivo
Procedure: (§1) Wound Induced Hair Neogenesis (WIHN). All experiments were followed with the present inventors' WIHN protocol^1,9. Briefly, hair was shaved and a 1.2 cm^2 full-thickness skin on the backs of 21-day old (telogen) male and female mice was removed by sterile scissors. A single treatment of RA (30 μl) (0.1 μg per mouse) (Millipore Sigma, R2625) and BMS493 (30 μl) (0.1 μg per mouse) (Cayman Chemical, #17418) was applied topically onto open wound on WD1 of Tlr3^−/− and WT mice, respectively. Poly (I:C) (50 μl) (5 μg per mouse) (Invivogen, tlrl-pic) was injected under the healed scab on WD3 of WT mice as described before^9,34. On WD20-24, numbers of regenerated hair follicles were visualized and quantified in the re-epithelialized skin by non-invasive confocal scanning laser microscopy (CSLM) (Caliber I.D., VIVASCOPE 1500) as published^1,9. As a vehicle (Control), ethanol (EtOH), dimethylsulfoxide (DMSO), or PBS was treated for RA, BMS493, and Poly (I:C), respectively.
RNA isolation and quantitative real-time PCR (qRT-PCR). For cells, total RNA was isolated from cultured keratinocytes using RNeasy Mini Kit (Qiagen, Valencia, CA, #74106) and treated with DNase I (Qiagen, #79254) to eliminate genomic DNA. For tissue, total RNA was isolated by following the manual of Direct-zol™ RNA MiniPrep Plus kit (Zymo Research, R2073). The purity and concentration of RNAs were analyzed using a NanoDrop2000c (Thermo Fisher Scientific, ND-2000c). Following reverse transcriptase reactions using high-capacity RNA to cDNA kit (Life Technologies), qRT-PCR was performed to measure target genes using TaqMan probes and Fast reaction master mix reagents (Life Technologies). Relative expression of mRNAs was analyzed by the cycle of threshold (Ct) value of target genes and quantified by normalizing to ribosomal protein large P0 (RPLP0) for human keratinocytes and to β-Actin for mouse keratinocytes or tissues as housekeeping genes using the ΔΔCt method^48.

wound beds = test: Immunostaining of healing wounds; format: in vivo, mouse; conditions: Tlr3−/− mice
Procedure: as §1
Immunofluorescence. […] Fluorescence images were observed by fluorescence microscopy (Leica microsystems), taken pictures with ×100 (low magnification) and ×200 (high magnification), and saved as image files.

[1] = tested on: keratinocytes of Tlr3−/− mice; test: Western blot of stem cell markers in keratinocytes of Tlr3-/- mice; format: cell-based, mouse; conditions: keratinocytes or whole skin from Tlr3−/− mice
Procedure: Adult keratinocytes isolation and cultures. For human keratinocytes, 3-mm skin biopsies were taken from areas of the occipital scalp through above IRB protocols using enzyme digestion method as described in the literature^30,31. For mouse keratinocytes, tails of adult mice were used and followed by the same protocol of human keratinocytes. Briefly, the skin fragments were incubated in 0.4% dispase II solution overnight at 4° C., allowing separation of epidermis from dermis. Then epidermis was incubated with 0.25% trypsin-EDTA (Lonza, Walkersville, MD) to isolate keratinocytes for 5 min at 37° C. Adult keratinocytes were maintained in KGM including defined growth factors (KGM-GOLD Bullet kit, #192060) (Lonza) and supplemented with 10 μM of ROCK inhibitor (Y-27632) (Cayman Chemical, #10005583) until use^32. For all in vitro experiments, primary keratinocytes were passaged at least once to eliminate contaminating other cells isolated from epidermis and used at passage 2-4 for human and passage 1-2 for mouse keratinocytes.
BMS493 treatment. BMS493 pan-RARs antagonist (1 μM) was pre-treated into keratinocytes for an hour and cells were incubated with RA (0.1 μM and 0.5 μM for human and mouse keratinocytes, respectively) or Poly (I:C) (0.1 μg per ml for both human and mouse keratinocytes) for 48 hrs. At the end of the experiment, cells were harvested for RNA and protein extraction to do further analysis including qRT-PCR and western blot.
Western blot analysis. Human and mouse keratinocytes were disrupted in M-PER lysis buffer (Thermo Fisher Scientific, #78501) containing protease inhibitors (Thermo Fisher Scientific, #87786) using ultrasonic homogenizer (20% power with 5 times every 2 seconds) to extract proteins. Then, protein concentrations were determined by BCA method (Thermo Fisher Scientific, #23225). Western blot procedures were followed by the protocol of NuPAGE system (Thermo Fisher Scientific). […] The signal intensity of protein was quantified using Image Lab software (Bio-Rad). […]

Compound	accumulation of PIC in cells (cells)	Aldh1a3 and Aldh1a2 induction in early wounds (Aldh1a2, Aldh1a3; Tlr3−/− mice)	Aldh1a2 transcription during wound healing (Aldh1a2, Aldh1a3; WT mice)	Aldh1a3 transcription during wound healing (Aldh1a2, Aldh1a3; WT mice)	Krt15 immunostaining in wounds (wound beds)	levels of Krt19, Krt15 and activated β-catenin protein [1]
Polyinosinic-polycytidylic acid [Poly (I:C)]	much more effectively	neither is induced	did not show a similar pattern	induced	–	–
CC1=C(/C=C/C(C)=C/C=C/C(C)=C/C(=O)O)C(C)(C)CCC1 [RA, all-trans-retinoic acid]	–	–	–	–	induces prominent Krt15	increased

From patent US11969402B2, “Compositions and methods for skin rejuvenation” (THE JOHNS HOPKINS UNIVERSITY, priority 2019, dated 2024)
